# Results published in patent US12398154B2, “Azaquinazoline pan-KRas inhibitors” (Mirati Therapeutics, Inc., priority 2020, dated 2025).
# pIC50: −log10 of the molar value.
# Experiments:
# [1] = system: phospho-ERK in AsPC-1 (G12D) cells; assay: Inhibition of KRas-mediated phosphorylation of ERK (in-cell western); type: cell-based; conditions: 3 hours compound, phospho-ERK normalized to GAPDH
# Outline: (§1)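 Cells treated 3 h with compounds (0.5% DMSO), fixed in formaldehyde and methanol-permeabilized. In-cell western for phospho-ERK (Thr202/Tyr204) normalized to GAPDH, as % of DMSO control; IC50 by 4-parameter fit.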
# [2] = system: phospho-ERK in NCI-H727 (G12V) cells; assay: as above; type: cell-based; conditions: 3 hours compound, phospho-ERK normalized to GAPDH
# Outline: as §1
# [3] = system: phospho-ERK in HCT116 (G13D) cells; assay: as above; type: cell-based; conditions: Homo sapiens, HCT-116, 3 hours compound, phospho-ERK normalized to GAPDH
# Outline: as §1
# [4] = system: phospho-ERK in PSN-1 (G12R) cells; assay: as above; type: cell-based; conditions: Homo sapiens, PSN1, 3 hours compound, phospho-ERK normalized to GAPDH
# Outline: as §1
# [5] = system: phospho-ERK in NCI-H358 (G12C) cells; assay: as above; type: cell-based; conditions: Homo sapiens, 3 hours compound, phospho-ERK normalized to GAPDH
# Outline: as §1
# [6] = system: phospho-ERK in A549 (G12S) cells; assay: as above; type: cell-based; conditions: Homo sapiens, 3 hours compound, phospho-ERK normalized to GAPDH
# Outline: as §1
# [7] = system: phospho-ERK in MKN1 (WTdep) cells; assay: as above; type: cell-based; conditions: Homo sapiens, MKN-1, 3 hours compound, phospho-ERK normalized to GAPDH
# Outline: as §1
# [8] = system: phospho-ERK in NCI-H460 (Q61H) cells; assay: as above; type: cell-based; conditions: 3 hours compound, phospho-ERK normalized to GAPDH
# Outline: as §1
# [9] = target: KRas G12R (Homo sapiens, UniProt P01116, G12R); assay: biochemical;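 further: TR-FRET displacement assay of compound binding to KRas, read after one hour at room temperature, potency from a four-parameter fit of percent-of-control values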
# Method: (§2) The ability of a compound to bind to KRas was measured using a TR-FRET displacement assay. […] After a 60-minute incubation at room temperature, the reaction was measured using a BMG LABTECH CLARIO star Plus via TR-FRET. […] The POC values were fit to a 4-parameter IC50 equation and the IC50 value reported.
# [10] = target: KRas G12D (Homo sapiens, UniProt P01116, G12D); assay: biochemical;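 further: TR-FRET displacement binding assay on KRas, read after a one-hour incubation at room temperature, IC50 fitted from percent-of-control values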
# Method: as §2
# [11] = target: KRas G12V (Homo sapiens, UniProt P01116, G12V); assay: biochemical;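 further: KRas binding measured by TR-FRET displacement at room temperature, IC50 fitted from percent of control values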
# Method: as §2
# [12] = target: KRas G12A (Homo sapiens, UniProt P01116, G12A); assay: biochemical;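 further: binding to KRas measured by TR-FRET displacement after one hour at room temperature, IC50 from a four-parameter fit of percent-of-control values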
# Method: as §2
# [13] = target: T1, KRas G13D (Homo sapiens, UniProt P01116, G13D); assay: KRas binding assay (TR-FRET displacement);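 further: One-hour room temperature incubation before TR-FRET reading, IC50 from a four-parameter curve fit to percent-of-control data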
# T1 construct: Biotinylated KRas (corresponding to amino acids 1-169, produced at Accelegan Inc.); biotin (biotinylated); purchased Accelegan Inc
# Method: as §2
# [14] = target: KRas G12S (Homo sapiens, UniProt P01116, G12S); assay: biochemical;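 further: TR-FRET displacement binding to KRas, read after one hour incubation at room temperature, IC50 from four-parameter fit of percent of control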
# Method: as §2
# [15] = target: T2, KRas Q61H (Homo sapiens, UniProt P01116, Q61H); assay: KRas binding assay (TR-FRET displacement);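 further: TR-FRET signal read after one hour at room temperature, IC50 derived by four-parameter fitting of percent-of-control values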
# T2 construct: Biotinylated KRas (corresponding to amino acids 1-169, produced at Accelegan Inc.); biotin (biotinylated); purchased Accelegan Inc
# Method: as §2
# [16] = target: KRas G12C (Homo sapiens, UniProt P01116, G12C); assay: biochemical;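 further: binding to KRas assessed by TR-FRET displacement after one hour incubation at room temperature, potency fitted from percent-of-control values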
# Method: as §2
# [17] = target: KRas WT (Homo sapiens, UniProt P01116); assay: biochemical;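 further: binding to KRas read as TR-FRET displacement after a one-hour room-temperature incubation, IC50 derived from percent-of-control values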
# Chain of KRas WT (P01116 1-169 isoform P01116-2): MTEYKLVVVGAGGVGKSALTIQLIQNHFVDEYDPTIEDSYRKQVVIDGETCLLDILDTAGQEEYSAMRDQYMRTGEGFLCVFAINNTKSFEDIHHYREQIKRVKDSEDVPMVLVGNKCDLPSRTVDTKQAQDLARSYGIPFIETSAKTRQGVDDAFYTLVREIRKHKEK
# Method: as §2
# Chain of KRas G12D (P01116 1-169 isoform P01116-2 G12D): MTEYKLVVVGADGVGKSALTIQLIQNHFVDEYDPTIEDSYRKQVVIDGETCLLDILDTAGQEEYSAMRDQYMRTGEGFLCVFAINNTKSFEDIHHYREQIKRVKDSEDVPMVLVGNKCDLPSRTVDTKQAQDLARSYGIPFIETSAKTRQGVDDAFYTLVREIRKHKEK
# Chain of KRas G12V (P01116 1-169 isoform P01116-2 G12V): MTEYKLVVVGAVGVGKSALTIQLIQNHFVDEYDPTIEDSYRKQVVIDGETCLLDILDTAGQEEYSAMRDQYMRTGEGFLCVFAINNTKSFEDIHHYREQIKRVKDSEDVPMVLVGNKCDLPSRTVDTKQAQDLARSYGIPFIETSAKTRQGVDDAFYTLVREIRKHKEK
# Chain of KRas G12R (P01116 1-169 isoform P01116-2 G12R): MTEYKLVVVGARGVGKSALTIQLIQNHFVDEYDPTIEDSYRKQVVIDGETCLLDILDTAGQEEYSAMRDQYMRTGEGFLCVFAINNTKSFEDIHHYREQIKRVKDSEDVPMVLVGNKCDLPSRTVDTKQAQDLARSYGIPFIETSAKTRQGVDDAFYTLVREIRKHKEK
# T1 sequence (P01116 1-169 isoform P01116-2 G13D): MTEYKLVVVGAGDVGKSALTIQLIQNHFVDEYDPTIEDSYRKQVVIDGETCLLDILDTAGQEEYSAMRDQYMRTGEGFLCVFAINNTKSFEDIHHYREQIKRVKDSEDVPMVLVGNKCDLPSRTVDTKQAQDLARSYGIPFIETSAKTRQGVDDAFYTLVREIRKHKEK
# T2 sequence (P01116 1-169 isoform P01116-2 Q61H): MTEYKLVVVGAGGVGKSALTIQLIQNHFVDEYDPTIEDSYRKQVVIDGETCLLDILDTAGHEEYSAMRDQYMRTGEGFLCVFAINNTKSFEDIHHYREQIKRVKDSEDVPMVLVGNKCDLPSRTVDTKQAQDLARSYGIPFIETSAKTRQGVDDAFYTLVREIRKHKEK
# Chain of KRas G12S (P01116 1-169 isoform P01116-2 G12S): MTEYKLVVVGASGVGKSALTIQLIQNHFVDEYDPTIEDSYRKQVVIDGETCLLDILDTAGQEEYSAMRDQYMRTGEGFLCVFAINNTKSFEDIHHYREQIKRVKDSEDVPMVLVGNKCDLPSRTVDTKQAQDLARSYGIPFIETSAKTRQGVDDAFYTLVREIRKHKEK
# Chain of KRas G12C (P01116 1-169 isoform P01116-2 G12C): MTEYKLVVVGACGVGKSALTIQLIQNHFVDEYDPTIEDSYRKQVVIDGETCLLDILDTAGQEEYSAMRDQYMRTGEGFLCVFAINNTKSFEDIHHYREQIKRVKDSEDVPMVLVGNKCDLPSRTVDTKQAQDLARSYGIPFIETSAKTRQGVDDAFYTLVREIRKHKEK
# Chain of KRas G12A (P01116 1-169 isoform P01116-2 G12A): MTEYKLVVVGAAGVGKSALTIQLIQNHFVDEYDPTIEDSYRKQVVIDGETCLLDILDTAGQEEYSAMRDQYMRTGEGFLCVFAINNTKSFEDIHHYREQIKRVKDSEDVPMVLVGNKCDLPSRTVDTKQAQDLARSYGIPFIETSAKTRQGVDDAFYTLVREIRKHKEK
pIC50 [9],pIC50 [10],pIC50 [11],pIC50 [12],IC50 [13],pIC50 [14],IC50 [15],pIC50 [16],pIC50 [17],Structure (SMILES),"IC50 ([1]; Homo sapiens, ASPC1, 3 h)","IC50 ([2]; Homo sapiens, NCI-H727, 3 h)",IC50 [3],IC50 [4],IC50 [5],IC50 [6],IC50 [7],"IC50 ([8]; Homo sapiens, NCI-H460, 3 h)",IC50 [1],IC50 [2],IC50 [8]
,,,,,,,,,CCc1c(F)ccc2cc(O)cc(-c3ncc4c(NCc5c[nH]c6ncccc56)nc(OC[C@@]56CCCN5C[C@H](F)C6)nc4c3F)c12 [62.],591 nM,178 nM,410 nM,≥ 10000 nM,24 nM,87 nM,7 nM,154 nM,,,
7.62,8.05,7.70,,,,,,,"C#Cc1c(F)ccc2cccc(-c3ncc4c(N5CCCC6(CNC(=O)C6)C5)nc(OC[C@@]56CCCN5C[C@H](F)C6)nc4c3F)c12 (stereo partly drawn) [Example 36, 7-(7-(8-ethynyl-7-fluoronaphthalen-1-yl)-8-fluoro-2-(((2R,7aS)-2-fluorohexahydro-1H-pyrrolizin-7a-yl)methoxy)pyrido[4,3-d]pyrimidin-4-yl)-2,7-diazaspiro[4.5]decan-3-one]",1540 nM,3390 nM,1610 nM,≥ 10000 nM,1130 nM,2150 nM,1180 nM,557 nM,,,
≥ 8.70,≥ 8.70,≥ 8.70,,,,,,,CCc1c(F)ccc2cc(O)cc(-c3ncc4c(N5CCCC6(CNC(=O)C6)C5)nc(OC[C@@]56CCCN5C[C@H](F)C6)nc4c3F)c12 (stereo partly drawn) [Example 38],966 nM,1190 nM,814 nM,7620 nM,324 nM,3270 nM,143 nM,573 nM,,,
≥ 8.70,≥ 8.70,≥ 8.70,,,,,,,CCc1c(F)ccc2cc(O)cc(-c3ncc4c(N5C[C@H](O)C[C@@H](O)C5)nc(OC[C@@]56CCCN5C[C@H](F)C6)nc4c3F)c12 [Example 59],,,1270 nM,≥ 10000 nM,176 nM,3560 nM,107 nM,,577 nM,769 nM,296 nM
≥ 8.70,≥ 8.70,≥ 8.70,,,,,,,CCc1c(F)ccc2cc(O)cc(-c3ncc4c(NCC5CNC(=O)C5)nc(OC[C@@]56CCCN5C[C@H](F)C6)nc4c3F)c12 (stereo partly drawn) [Example 60],3890 nM,1260 nM,3600 nM,≥ 10000 nM,389 nM,5530 nM,230 nM,1030 nM,,,
≥ 8.70,8.30,≥ 8.70,,,,,,,CCc1c(F)ccc2cc(O)cc(-c3ncc4c(N5CCC6(CC5)CC(=O)N6)nc(OC[C@@]56CCCN5C[C@H](F)C6)nc4c3F)c12 [Example 73],3490 nM,756 nM,128 nM,≥ 10000 nM,98 nM,191 nM,23 nM,176 nM,,,
,,,,,,,,,"CCc1c(F)ccc2cc(O)cc(-c3ncc4c(N5CC(n6ccnc6)C5)nc(OC[C@@]56CCCN5C[C@H](F)C6)nc4c3F)c12 [Example 134, 4-(4-(3-(1H-imidazol-1-yl)azetidin-1-yl)-8-fluoro-2-(((2R,7aS)-2-fluorohexahydro-1H-pyrrolizin-7a-yl)methoxy)pyrido[4,3-d]pyrimidin-7-yl)-5-ethyl-6-fluoronaphthalen-2-ol]",≥ 10000 nM,≥ 10000 nM,≥ 10000 nM,≥ 10000 nM,48 nM,1490 nM,178 nM,666 nM,,,
8.52,7.51,8.52,,,,,,,"CCc1c(F)ccc2cc(O)cc(-c3ncc4c(NCCCc5cc[nH]n5)nc(OC[C@@]56CCCN5C[C@H](F)C6)nc4c3F)c12 [Example 135, 4-(4-((3-(1H-pyrazol-3-yl)propyl)amino)-8-fluoro-2-(((2R,7aS)-2-fluorohexahydro-1H-pyrrolizin-7a-yl)methoxy)pyrido[4,3-d]pyrimidin-7-yl)-5-ethyl-6-fluoronaphthalen-2-ol]",2060 nM,≥ 10000 nM,3270 nM,≥ 10000 nM,37 nM,2460 nM,53 nM,647 nM,,,
8.52,≥ 8.70,≥ 8.70,,,,,,,"Oc1cc(-c2ncc3c(N4CCCC(c5ncn[nH]5)C4)nc(OCC45CCCN4CCC5)nc3c2F)c2c(F)c(F)ccc2c1 (stereo not drawn) [Example 137, 4-(4-(3-(1H-1,2,4-triazol-5-yl)piperidin-1-yl)-8-fluoro-2-((hexahydro-1H-pyrrolizin-7a-yl)methoxy)pyrido[4,3-d]pyrimidin-7-yl)-5,6-difluoronaphthalen-2-ol]",≥ 10000 nM,≥ 10000 nM,≥ 10000 nM,≥ 10000 nM,2040 nM,≥ 10000 nM,≥ 10000 nM,≥ 10000 nM,,,
7.18,7.48,7.55,7.38,34 nM,7.37,53 nM,7.37,7.27,"C[C@@]1(O)CCCN(c2nc(OC[C@@]34CCCN3C[C@H](F)C4)nc3c(F)c(-c4c5ccccc5cc5[nH]ncc45)ncc23)C1 [Example 154, (3R)-1-(7-(1H-benzo[f]indazol-4-yl)-8-fluoro-2-(((2R,7aS)-2-fluorohexahydro-1H-pyrrolizin-7a-yl)methoxy)pyrido[4,3-d]pyrimidin-4-yl)-3-methylpiperidin-3-ol]",,≥ 10000 nM,1460 nM,≥ 10000 nM,840 nM,8450 nM,,,,,
≥ 8.70,8.30,≥ 8.70,,,,,,,CCc1c(F)ccc2cc(O)cc(-c3ncc4c(NC5CS(=O)(=O)C5)nc(OC[C@@]56CCCN5C[C@H](F)C6)nc4c3F)c12 [Example 168],,1800 nM,821 nM,≥ 10000 nM,156 nM,≥ 10000 nM,,,,,
≥ 8.70,≥ 8.70,≥ 8.70,,,,,,,CCc1c(F)ccc2cc(O)cc(-c3ncc4c(N5CCCC(CS(N)(=O)=O)C5)nc(OC[C@@]56CCCN5C[C@H](F)C6)nc4c3F)c12 (stereo partly drawn) [Example 170],,3400 nM,2350 nM,≥ 10000 nM,470 nM,≥ 10000 nM,,,,,
8.05,7.05,8.52,,,,,,,"CCc1c(F)ccc2cc(O)cc(-c3ncc4c(Nc5ccc6cn[nH]c6c5)nc(OC[C@@]56CCCN5C[C@H](F)C6)nc4c3F)c12 [Example 171, 4-(4-((1H-indazol-6-yl)amino)-8-fluoro-2-(((2R,7aS)-2-fluorohexahydro-1H-pyrrolizin-7a-yl)methoxy)pyrido[4,3-d]pyrimidin-7-yl)-5-ethyl-6-fluoronaphthalen-2-ol]",,≥ 10000 nM,≥ 10000 nM,≥ 10000 nM,≥ 10000 nM,≥ 10000 nM,,,,,
7.89,7.05,8.40,,,,,,,"CCc1c(F)ccc2cc(O)cc(-c3ncc4c(Nc5ccc6cnn(C)c6c5)nc(OC[C@@]56CCCN5C[C@H](F)C6)nc4c3F)c12 [Example 174, 5-ethyl-6-fluoro-4-(8-fluoro-2-(((2R,7aS)-2-fluorohexahydro-1H-pyrrolizin-7a-yl)methoxy)-4-((1-methyl-1H-indazol-6-yl)amino)pyrido[4,3-d]pyrimidin-7-yl)naphthalen-2-ol]",,≥ 10000 nM,≥ 10000 nM,≥ 10000 nM,1290 nM,4950 nM,,,,,
≥ 8.70,8.52,≥ 8.70,,,,,,,CCc1c(F)ccc2cc(O)cc(-c3ncc4c(NCC5CS(=O)(=O)C5)nc(OC[C@@]56CCCN5C[C@H](F)C6)nc4c3F)c12 [Example 177],,≥ 10000 nM,1700 nM,≥ 10000 nM,54 nM,764 nM,,,,,
